# How the values were obtained:
# [1] = tested on: PyMT tumor cells; experiment: Experimental lung metastasis, tail vein injection of PyMT tumor cells; format: in vivo, FVB mice; details: treatment from 3 days after injection, five weeks
# Protocol: FIG. 5L, 2 k PyMT tumor cells were injected into FVB females via tail-vein. 3 days after injection, the mice were treated with vehicle or C26-A6.
# FIG. 5M, 2 k PyMT tumor cells were injected into FVB females via tail-vein. 3 days after injection, the mice were treated with vehicle or C26-A6. 5 weeks later, lung metastatic nodules were counted. n=6 mice per group. Data represent mean±SEM.
# To exclude the possibility that the lung metastasis reduction upon C26-A6 treatment was due to the smaller primary tumor, tail vein injection of PyMT tumor cells was performed to form experimental lung metastasis in FVB mice. Three days later, mice were divided randomly into two groups and treated with vehicle or C26-A6 respectively (FIG. 5L).
# [2] = tested on: Py8119-OVA cells co-cultured with OT-I splenocytes; experiment: Py8119-OVA tumor cell / OT-I splenocyte co-culture; format: cell-based, mouse; details: 200 μM
# Protocol: FIG. 22C, Py8119-OVA cells co-cultured with OT-I splenocytes were treated with 200 μM of C26-A6 or same amount of vehicle. The binding between MTDH and Tap1/2 in tumor cells were determined by RIP assay.
# FIG. 22D, Tap1/2 RNAs that bind to MTDH in (c) were quantified and normalized to the pulled down MTDH levels.
# FIG. 22E, Tap1/2 levels in Py8119-OVA cells with/without 200 μM of C26-A6 treatment during co-culture were examined by qRT-PCR.
# FIG. 22F, OVA (H-2K^b-SIINFEKL) presentation in Py8119-OVA cells with/without 200 μM of C26-A6 treatment in co-culture were determined by flow cytometry. MFI, Mean Fluorescence Intensity; AU, arbitrary units.
# FIG. 22G, Media in (E) was collected for IFN-γ ELISA and cytotoxicity assay. AU, arbitrary units.
# FIG. 32B, Py8119-OVA cells co-cultured with OT-I splenocytes were treated with 200 μM of C26-A6 or same amount of vehicle. The binding between SND1 and Tap1/2 in tumor cells were determined by RIP assay.
# FIG. 32C, Tap1/2 RNAs that bind to SND1 were quantified and normalized to the pulled down SND1 levels.
# FIG. 32D, MHC-I presentation in Py8119-OVA cells with/without 200 μM of C26-A6 treatment in co-culture were determined by flow cytometry. MFI, mean fluorescence intensity; AU, arbitrary units.
# FIGS. 32E, The expression of CD137 in splenocytes co-cultured with Py8119-OVA was determined by flow cytometry upon 200 μM of C26-A6 or vehicle treatment.
# FIGS. 32F, The expression of IFN-γ in splenocytes co-cultured with Py8119-OVA were determined by flow cytometry upon 200 μM of C26-A6 or vehicle treatment.
# Immune cell and tumor cell co-culture assay. Py8119-OVA tumor cells with various MTDH expression status were plated in 6-well plates for in vitro co-culture in DMEM/F12 media listed above. Once cells reached 50-75% confluency OT-I splenocytes or CD8^+ T cells were added to the tumor cells at the 1:10 ratio (tumor cell. immune cell). After 24 hr of co-culture, the cells and culture media were collected for further experiments.
# RNA-Binding immunoprecipitation (RIP) and western blot (WB). Py8119-OVA tumor cells after co-culture for 24 hr were collected for RIP using RNA-Binding Protein Immunoprecipitation Kit (Millipore, #17-700). Briefly, 5×10^7 tumor cells were resuspended with 200 μL of RIP lysis buffer and frozen at −80° C. for at least 1 hr to lyse the cells. The sample was then centrifuged at 14,000 rpm for 10 min at 4° C. 20 μL of supernatant was transferred to two new tubes with 10 μL each and frozen at −80° C. to serve as input of total. The rest of the supernatant was diluted with 1.8 ml of RIP immunoprecipitation buffer and split equally into two 1.5 ml EP tubes. 5 μg of MTDH (Invitrogen, catalogue #40-6500), SND1 (Santa Cruz, catalogue #sc-271590) or IgG (provided in the Kit) antibody was added into each tube and incubated at 4° C. overnight. The next day, 50 μL of magnetic beads was added and incubated for another 2 hr. The beads were then washed with 500 μL of RIP wash buffer on a magnetic separator for 5 times. During the final wash, 25 μL of the beads in the wash buffer was transferred into a new tube, stored at −80° C. to serve as input of IP. The rest of the beads together and 10 μL input of total were resuspended with 300 μL of proteinase K buffer respectively and incubated at 55° C. for 30 min to degrade proteins. RNA was extracted with phenol:chloroform:isoamyl alcohol and precipitated with 100 μL of Salt Solution I, 30 μL of Salt Solution II, and 10 μL of Precipitation Enhancer at −80° C. overnight. […]
# [3] = tested on: SCP28 tumors with MTDH or SND1 KD; experiment: SCP28 tumor models with MTDH or SND1 KD; format: in vivo, NSG females
# Protocol: FIG. 17A, Indicated cells were injected into NSG females orthotopically and followed by vehicle or C26-A6 treatment after 2 weeks. Tumor volumes were measured 8 weeks after injection. Vehicle, n=6 mice; C26-A6, n=6 mice.
# FIG. 17B, Spontaneous lung metastasis of the mice in FIG. 17A were assessed by BLI (right). Size bar, 5 mm. Vehicle, n=5 lungs; C26-A6, n=6 lungs.
# FIG. 17C, The SND1 and MTDH expression of the cells used in FIG. 17A was evaluated.
# Next, to further validate that the anti-tumor effect of C26-A6 depends on its on-target effects by disrupting MTDH-SND1 complex, PyMT; UBC-Cre^ERT+/−;Mtdh^fl/fl tumor cells with Mtdh depletion or with endogenous Snd1 KD were employed for the similar assay as in FIG. 5-1a. […] Likewise, MTDH or SND1 KD abolished the C26-A6 treatment-induced primary tumor inhibition or metastasis reduction in SCP28 tumor models (Extended Data FIG. 10-1a-c).
smiles,measurement,setting,value
COc1ccc(Cl)cc1S(=O)(=O)Nc1cccn2nc(C)nc12 [Analog C26-A6],lung metastasis (metastatic nodules),[1],significantly suppressed lung metastasis
same,OVA antigen and MHC-I complex presentation (flow cytometry),[2],promotes OVA antigen and MHC-I complex presentation
same,"T cell activation (CD137, IFN-γ)",[2],promotes
same,Tap1/2 binding of MTDH and SND1 (RIP assay),[2],decreased the Tap1/2 binding of MTDH and SND1
same,Tap1/2 mRNA expression level (qRT-PCR),[2],increased the expression level of these mRNAs
same,immune clearance of tumor cells (cytotoxicity assay),[2],sensitizes the tumor cells to immune clearance
same,C26-A6 treatment-induced primary tumor inhibition or metastasis reduction,[3],abolished
